Several values for one entry are separate records, joined by “and”; a condition that tells them apart may be missing. Identical values can stand only once. Like-named read-outs stand apart in the source and are kept apart here.
How the values were obtained:
[1] = system: GCV-resistant/PFA-sensitive HCMV strain; test: microbe, parasite or virus in culture; assay type: cell-based, human cytomegalovirus (HCMV); settings: for average plaque numbers/microculture: GCV-resistant, PFA/CDV-sensitive strain
Description: (§1) Cocultures of infected and uninfected human foreskin fibroblasts (HFFs) were used for this purpose.
(§2) The implementation of the assay was described for the first time in Prix, et al., “A simplified assay for screening of drug resistance of cell-associated cytomegalovirus strains,” Journal of Clinical Virology (1998) 11:29-37, and Prix, et al., “Comprehensive restriction analysis of the UL97 region allows early detection of ganciclovir-resistant human cytomegalovirus in an immunocompromised child,” Journal of Infectious Diseases (1999) 180:491-495, and is briefly described below.
(§3) HCMV primary isolates on HFF cells in tube culture were passaged on subconfluent monolayers of HFF grown in small cell culture flasks (25 cm^2), and cultured. When an approx. 20-40% cytopathic effect (CPE) had been reached, the cells were washed with phosphate-buffered saline (PBS) and the monolayer was removed by trypsinization. After the trypsin had been inactivated, the pellet was taken up in Eagle's minimal essential medium (MEM)-10% FCS (foetal calf serum) and subjected to mild filtration for the purpose of separating off cell aggregates.
(§4) In parallel, uninfected HFF cells were cultured on 175 cm^2 dishes, washed, trypsinized and, after further purification steps, taken up in MEM-10% FCS.
In order to prepare cocultures, the infected cells were mixed with the uninfected cells in the following manner: 2.5×10^4 uninfected cells/100 μl were mixed, in two different ratios, with 500 and 1000 infected cells/100 μl. In each case 100 μl of each of these dilution steps were pipetted in triplicate into a 96-well microtitre plate. In order to ensure that the cells adhered to the microtitre plate bottom, the cocultures were incubated for at least 4 h before the medium was carefully removed.
The cultures were then incubated for 4 days so as to enable the viruses from the infected single cells to spread in the form of plaque formation by infecting the neighbouring cells.
Following the 4-day incubation, the medium was carefully poured off and the microcultures were permeabilized, and fixed, with 200 μl of ice-cold (−20° C.) methanol. After 20 min, the methanol was removed and the cells were washed twice with PBS.
(§5) The primary antibody (anti-IE1-pp72, E13 clone, Paesel & Lorei, Germany), which is directed against the HCMV immediate early antigen (UL123) of HCMV, was then added. […] After the peroxidase/H2O2 substrate had been added, the HCMV immediate early antigen was detected, under a microscope, in the nuclei of the infected fibroblasts as a result of the in situ brown staining.
6.25 μM of the structurally identical, ethyl-esterified compound N4 were also included.
In this experiment, 500 HCMV-infected HFF cells/microculture were used.
For correctly evaluating the plates, the norm was applied that a plaque had to consist of a group of cells containing at least 10 individual cells in order to be included in the count.

[2] = system: multiresistant HCMV strain (GCV/PFA/CDV-resistant); test: Modified cell-adapted plaque reduction assay (HFF cocultures), multiresistant HCMV strain; assay type: cell-based, human cytomegalovirus (HCMV); settings: for average plaque numbers: 1500 HCMV-infected HFF cells/microculture, multiresistant strain
Description: as §1, §2, §3, §4
[…] In each case 100 μl of each of these dilution steps were pipetted in triplicate into a 96-well microtitre plate. In order to ensure that the cells adhered to the microtitre plate bottom, the cocultures were incubated for at least 4 h before the medium was carefully removed. […]
as §5, with “staining. […]” for “staining.”

[3] = system: human prepuce fibroblasts; test: Cytotoxic effect in vitro towards fibroblasts; assay type: cell-based
Protocol: Since N3 was determined to have a cytotoxic effect in vitro towards human prepuce fibroblasts only at concentrations of >125 μM, adequate therapeutic breadth for in vivo use consequently also exists.

HCMV = test: Preliminary screening of antiviral effect in vitro; assay type: cell-based, human cytomegalovirus (HCMV); settings: compared with unesterified compound

For “3′-azido-2′,3′-dideoxythymidylyl-(5′→2)-1-O-octadecyl-rac-glycerol-3-(hydroxycarbonyl)-phosphonate [N3]”, the average plaque numbers/microculture ([1]; 6.25 μM N3, 500 HCMV-infected HFF cells/microculture) was 5.7 and 7.5, the “ID50 lower than that for GCV (fold)” value ([1]; GCV-resistant strain, 1000 infected cells/microculture) was “approx. 11 ×” and the “antiviral activity higher than that of PFA (fold)” value ([1]; GCV-resistant/PFA-sensitive strain, 1000 infected HFF cells/microculture) was “approx. 40 ×”. For the same molecule, the average plaque numbers ([2]; N3 (6.25 μM recorded)) was 2.3 and the “concentration with cytotoxic effect in vitro” value [3] was over 125 µM.
`Nc1nc2c(ncn2COC(CO)CO)c(=O)[nH]1` [GCV, 9-[1,3-dihydroxy-2-propoxymethyl]guanine, reference compound] showed an average plaque numbers/microculture ([1]; 5 μM GCV, 500 HCMV-infected HFF cells/microculture) of 19.5 and an IC50 ([1]; Human betaherpesvirus 5, Table 1, GCVres/PFAsens/CDVsens strain, Niz = 1000 infected cells/microculture, read-out: ID50 (95% CI)) of 14.3 µM.
Work on `O=C(O)P(=O)(O)O.[Na]` [PFA, sodium-phosphonoformic acid, reference compound] yielded a number of plaques ([1]; 300 μM PFA, 500 HCMV-infected HFF cells/microculture, negative control 37.9) of 5, an IC50 ([1]; Human betaherpesvirus 5, read-out: ID50 (95% CI)) of 64.8 µM and an average plaque numbers ([2]; PFA (300 μM recorded)) of 20.5.
With “ethyl 3′-azido-2′,3′-dideoxythymidylyl-(5′→2)-1-O-octadecyl-rac-glycerol-3-(hydroxycarbonyl)-phosphonate [N4]” the “antiviral activity against multiresistant strains” value ([2]; multiresistant strains) was “did not exhibit any antiviral activity” and the “antiviral effect in vitro” value (HCMV) was “markedly reduced antiviral effect”.

From US7279465B2, “Use of amphiphilic nucleoside phosphonoformic acid derivatives for the treatment of viral infectious diseases” (Eberhard-Karls-Universitaet, priority 2002, dated 2007)
